The text below walks through data of ChEMBL document CHEMBL1154960, “Development of improved inhibitors of wall teichoic acid biosynthesis with potent activity against Staphylococcus aureus” (Bioorg Med Chem Lett, 2010).

Active and inactive are the calls of the source. The rule behind the calls is not given here.

In this test the test system is Staphylococcus aureus. The test is described as follows: Antibacterial activity against tarO deficient Staphylococcus aureus RN4220 assessed as growth inhibition at 100 uM after 12 hrs by optical density plate reader method. In kind it is functional.
With `CCN(Cc1ccccc1)c1nc2c(S(=O)(=O)c3ccc(C)c(C)c3)nnn2c2ccc(Cl)cc12`, the outcome was inactive.
For the compound `COc1ccccc1CNc1nc2c(S(=O)(=O)c3ccc(C)c(C)c3)nnn2c2ccc(Cl)cc12`, the result was inactive.
In the case of `CCOC(=O)C1CCN(c2nc3c(S(=O)(=O)c4ccccc4)nnn3c3ccc(Cl)cc23)CC1`, the outcome was inactive.
Turning to `COc1ccc(Nc2nc3c(S(=O)(=O)c4ccccc4)nnn3c3ccc(Cl)cc23)cc1OC`, the result was inactive.
Then `Cc1ccc(S(=O)(=O)c2nnn3c2nc(NCCC(C)C)c2cc(Cl)ccc23)cc1C`, with “inactive”; and `CCc1ccc(S(=O)(=O)c2nnn3c2nc(NCc2cccc(OC)c2)c2cc(Cl)ccc23)cc1`, with “inactive”; and `c1ccc(-c2nnn3c2nc(N2CCOCC2)c2ccccc23)cc1`, with “inactive”.
Under `CCc1ccc(S(=O)(=O)c2nnn3c2nc(N(CC)Cc2ccccc2)c2cc(Cl)ccc23)cc1` stands “inactive”; under `CCOc1ccc(Nc2nc3c(S(=O)(=O)c4ccc(CC)cc4)nnn3c3ccc(Cl)cc23)cc1`, “inactive”; under `CCc1ccc(S(=O)(=O)c2nnn3c2nc(Nc2ccc(F)cc2)c2cc(Cl)ccc23)cc1`, “inactive”.
Then `CCOCCCNc1nc2c(S(=O)(=O)c3ccc(CC)cc3)nnn2c2ccc(Cl)cc12`, with “inactive”; and `COCCCNc1nc2c(S(=O)(=O)c3ccccc3)nnn2c2ccc(Cl)cc12`, with “inactive”.
As for `CC(=O)c1ccccc1N1CCN(c2nc3c(S(=O)(=O)c4ccccc4)nnn3c3ccc(Cl)cc23)CC1`, the outcome was inactive.
Under `Cc1ccc(Nc2nc3c(S(=O)(=O)c4ccccc4)nnn3c3ccc(Cl)cc23)c(C)c1` stands “inactive”; under `CCOC(=O)C1CCCN(c2nc3c(S(=O)(=O)c4ccccc4)nnn3c3ccccc23)C1` (stereo unspecified), “inactive”; under `CCOC(=O)c1nnn2c1nc(N(CC)CC)c1ccccc12`, “inactive”.
Consider `COc1ccc(Nc2nc3c(S(=O)(=O)c4ccccc4)nnn3c3ccc(Cl)cc23)c(OC)c1`, for which the outcome was inactive.
Turning to `O=S(=O)(c1ccccc1)c1nnn2c1nc(Nc1ccccc1)c1cc(Cl)ccc12`, the result was inactive.
On to `CSc1cccc(Nc2nc3c(S(=O)(=O)c4ccccc4)nnn3c3ccc(Cl)cc23)c1`, for which the outcome was inactive.
Under `Cc1ccc(C)c(S(=O)(=O)c2nnn3c2nc(NCCC(C)C)c2ccccc23)c1` stands “inactive”; under `CC(=O)c1ccc(N2CCN(c3nc4c(S(=O)(=O)c5ccc(C)c(C)c5)nnn4c4ccc(Cl)cc34)CC2)cc1`, “inactive”; under `Cc1ccc(S(=O)(=O)c2nnn3c2nc(NC(C)C)c2cc(Cl)ccc23)cc1C`, “inactive”.
For `COCCNc1nc2c(S(=O)(=O)c3ccccc3)nnn2c2ccc(Cl)cc12`, the outcome was inactive.
`O=S(=O)(c1ccccc1)c1nnn2c1nc(NCc1ccccc1)c1cc(Cl)ccc12`: the outcome was inactive.
Under `Cc1ccc(S(=O)(=O)c2nnn3c2nc(N2CCN(c4ccc(F)cc4)CC2)c2cc(Cl)ccc23)cc1C` stands “inactive”.
Under `COc1ccc(Nc2nc3c(S(=O)(=O)c4ccccc4)nnn3c3ccc(Cl)cc23)cc1` stands “inactive”.
`CCc1ccc(S(=O)(=O)c2nnn3c2nc(Nc2cc(OC)cc(OC)c2)c2cc(Cl)ccc23)cc1`: the outcome was inactive.
As to `COc1ccccc1N1CCN(c2nc3c(S(=O)(=O)c4ccccc4)nnn3c3ccc(Cl)cc23)CC1`, the result was inactive.
Regarding `COc1ccccc1N1CCN(c2nc3c(S(=O)(=O)c4ccc(C)c(C)c4)nnn3c3ccc(Cl)cc23)CC1`, the outcome was inactive.
Under `CC(=O)c1ccc(Nc2nc3c(S(=O)(=O)c4ccccc4)nnn3c3ccc(Cl)cc23)cc1` stands “inactive”.
With `Cc1ccc(N2CCN(c3nc4c(S(=O)(=O)c5ccc(C)c(C)c5)nnn4c4ccccc34)CC2)c(C)c1`, the outcome was inactive.
